Blank lines part the entries; values can stand above or below the molecule they belong to.
What was measured:
[1] = Solubility in water of ether bond-containing compounds; format: physicochemical
Excerpt: The solubilities in water of the first ether bond-containing compound (propylene glycol monopropyl ether) in Test Example 1, the first ether bond-containing compound (dipropylene glycol monopropyl ether) in Test Example 7, and the ether bond-containing compound of the chemical formula I wherein R^2 has 4 (C4) or more carbon atoms (butylene glycol monobutyl ether) were compared.
The solubilities in water of the first ether bond-containing compound (propylene glycol monopropyl ether) in Test Example 1, the ether bond-containing compound (dipropylene glycol monopropyl ether) in Test Example 7, and the ether bond-containing compound of the chemical formula I wherein R^3 is an alkyl group (propylene glycol dibutyl ether) were compared.

[2] = Boiling point of ether bond-containing compounds; details: Table 5, Test Example 23; under atmospheric pressure

Solubility in water (% by weight) ([1]; Table 3, Test Example 21): About 1 % by weight
Compound: CCCCOCCCCO [Butylene glycol monobutyl ether, butylene glycol monobutyl ether]

Compound: COCCOC(C)=O [Ethylene glycol monomethyl ether acetate, ethylene glycol monomethyl ether acetate]
Boiling point (° c.) [2]: 143 ° c.

Solubility in water (% by weight) ([1]; Table 4, Test Example 22): Less than 1 % by weight
Compound: CCCCOCC(C)OCCCC (stereo not drawn) [Propylene glycol dibutyl ether, propylene glycol dibutyl ether]
